We go through 10 molecules from patent publication US5811427A (priority 1997, dated 1998).

The subject of one assay is Pythium ultimum. Briefly: Fungitoxicity against Pythium ultimum (inhibition of mycelial growth in liquid broth). The assay is classed as cell-based. To be noted: Globisporangium ultimum, 48 hours at 25° C. with shaking, asparagine-sucrose broth, read-out: % Inhibition of growth (increase in mycelial dry weight) as compared to controls. The method, then:
Compounds were tested for fungitoxicity against Pythium ultimum according to the procedures set forth below.
Test compounds were dissolved in dimethylsulfoxide at 20 mg/ml and 0.1 ml was added to 19.9 ml of a liquid asparagine-sucrose broth, prepared according to the method described in Erwin, D. C., and Katznelson, K., Canadian Journal of Microbiology 7, 15 (1971), in 9 cm petri dishes to give a concentration of 100 ppm of the compound. Each plate was inoculated with a mycelial plug, 7 mm in diameter, taken from the growing edge of a culture of Pythium ultimum grown on potato dextrose agar. Two replicate plates were used for each treatment. After growth for 48 hours at 25° C. with shaking on a gyrotary shaker at 60 rpm, the increase in mycelial dry weight was determined. Fungitoxicity was recorded as percent inhibition of growth as compared to controls lacking the test compounds.

The test system of the next assay is Plasmopara viticola. Format: in vivo. To be noted: 7-8 days at 20° C.
A further assay has as its system Phytophthora infestans. Briefly: whole plant or invertebrate. To be noted: in Solanum lycopersicum, 144 h, read-out: percent disease control, TLB. Format: in vivo.
Assay [1] relates to Pseudoperonospora cubensis. To be noted: in vivo.

For `CCC(C)(NC(=O)c1ccc2ocnc2c1)C(=O)CCl` (stereo not shown) [Compound 8], the inhibition (in general, the percentage by which the read-out fell short of the control) at 100 ppm with Pythium ultimum was determined as 93.7%. For the same molecule, in the assay on Plasmopara viticola, the “percent disease control, GDM” value came to 100%. For the same molecule, the pest or weed control at 300 ppm with Phytophthora infestans was found to be 90%.

For `CCC(C)(NC(=O)c1ccc2ncoc2c1)C(=O)CCl` (stereo not shown) [Compound 1], in the assay on Pythium ultimum, the inhibition at 100 ppm was found to be 89.4%. The pest or weed control at 375 ppm in the assay with Phytophthora infestans is 100%.

On to `CCC(C)(NC(=O)c1ccc2nc(C)oc2c1)C(=O)C(Cl)Cl` (stereo not shown) [Compound 14], for which the inhibition at 100 ppm in the assay with Pythium ultimum is 94.5%.

Regarding `CCC(C)(NC(=O)c1cc(Cl)c2nc(C)oc2c1)C(=O)CCl` (stereo not shown) [Compound 12], in the assay with Pythium ultimum, the inhibition at 100 ppm amounted to 90.7%. In addition, the “percent disease control, GDM” value in the assay with Plasmopara viticola is 90%. Further, the pest or weed control at 300 ppm in the assay with Phytophthora infestans turned out to be 95%.

Turning to `CCC(C)(NC(=O)c1ccc2c(c1)CCO2)C(=O)C(Cl)Cl` (stereo not shown) [Compound 7], in the assay with Pythium ultimum, the inhibition at 100 ppm was 94.5%.

Take `CCC(C)(NC(=O)c1ccc2[nH]ccc2c1)C(=O)CCl` (stereo not shown) [Compound 6]: the inhibition at 100 ppm in the assay on Pythium ultimum was found to be 88.6%. Besides, the “percent disease control, GDM” value in the assay with Plasmopara viticola is recorded as 100%. Besides, the pest or weed control at 300 ppm in the assay on Phytophthora infestans is 100%.

For `CCC(C)(NC(=O)c1ccc2[nH]ccc2c1)C(=O)C(Cl)Cl` (stereo not shown) [Compound 5], in assay [1], the “percent disease control, CDM” value was 50%. The inhibition at 100 ppm in the assay with Pythium ultimum came out at 66.9%. For the same molecule, the pest or weed control at 750 ppm in the assay on Phytophthora infestans is 0%.

For `CCC(C)(NC(=O)c1ccc2c(c1)CCO2)C(=O)CCl` (stereo not shown) [Compound 9], the inhibition at 100 ppm with Pythium ultimum amounted to 91.6%. In the assay with Plasmopara viticola, the “percent disease control, GDM” value is 0%. For the same molecule, the pest or weed control at 300 ppm in the assay with Phytophthora infestans was 100%.

For `CCC(C)(NC(=O)c1ccc2ncsc2c1)C(=O)CCl` (stereo not shown) [Compound 4], the “percent disease control, CDM” value in assay [1] was determined as 50%. Further, the inhibition at 100 ppm with Pythium ultimum was 94.2%. Moreover, the pest or weed control at 300 ppm in the assay with Phytophthora infestans was found to be 100%.

As to `CCC(C)(NC(=O)c1cc(Cl)c2ncoc2c1)C(=O)CCl` (stereo not shown) [Compound 3], in the assay with Pythium ultimum, the inhibition at 100 ppm stood at 92%. The “percent disease control, GDM” value in the assay with Plasmopara viticola was 100%. Besides, the pest or weed control at 300 ppm in the assay on Phytophthora infestans came to 100%.
